# Read-outs that look alike come from different tables or passages of the source.
# Assays:
# 468 kinases [1] = assay type: binding; details: concentration of 100 nM
# 468 kinases [2] = details: concentration of 100 nM; cited from earlier work
SMILES,number of wild-type kinases inhibited (percent control <35%) (468 kinases [1]),number of wild-type kinases inhibited (percent control <35%) (468 kinases [2])
C1=C/COCc2cc(ccc2OCCN2CCCC2)Nc2nccc(n2)-c2cccc(c2)COC/1 [Pacritinib],55,–
Cc1cnc(Nc2ccc(OCCN3CCCC3)cc2)nc1Nc1cccc(S(=O)(=O)NC(C)(C)C)c1 [Fedratinib],–,34

# Reference: article PMC12504684 (Communications Chemistry, 2025)
